Measured values taken from patent US20240067662A1, “KRAS INHIBITORS” (Bristol-Myers Squibb Company, priority 2022, published 2024).
pIC50: −log10 of the molar value.

The compounds below were run against GMPPNP-loaded KRAS G12C (Homo sapiens, UniProt P01116, G12C) (assay: KRAS G12C RAF Disruption Assay (HTRF)). Details: recombinant GMPPNP-loaded KRAS G12C (5 nM), 20 min with compound; GST-RAF1 RBD (9 nM); HTRF signal; read-out: KRASG12C RAF Disruption Assay (IC50).
Format: biochemical
Experimental: KRAS^G12C RAF Disruption Assay
This is a functional assay that measures activity of compounds against KRAS-G12C^(ON), i.e., the active form of KRAS G12C. Recombinant GMPPNP-loaded KRAS G12C (5 nM) was treated with compound at room temperature for 20 minutes in assay buffer (50 mM Tris pH 7.5, 100 mM NaCl, 1 mM MgCl2, 1 mM DTT, 100ug/ml BSA). Recombinant GST-RAF1 RBD (9 nM) was added, and the reaction mixture was incubated for 20 minutes. SA-Tb (0.25 nM) was added, and the reaction mixture was incubated for 3 hours. HTRF signal was measured (PerkinElmer Envision), the signal ratio (λem 520/λem 495) was calculated, and IC50 values were calculated from the dose-response curve.

Chain of GMPPNP-loaded KRAS G12C (P01116 1-188 isoform P01116-2 G12C): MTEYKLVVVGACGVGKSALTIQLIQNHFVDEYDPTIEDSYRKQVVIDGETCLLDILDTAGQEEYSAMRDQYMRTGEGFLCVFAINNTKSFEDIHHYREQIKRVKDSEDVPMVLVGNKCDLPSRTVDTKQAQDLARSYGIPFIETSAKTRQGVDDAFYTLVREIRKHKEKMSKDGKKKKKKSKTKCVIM

Structure (SMILES)	pIC50
C#Cc1cccc2cccc(-c3ncc4c(N5CCN(C(=O)/C(F)=C/c6ncco6)CC5)nc(OC[C@@]56CCCN5C[C@H](F)C6)nc4c3F)c12 [Compound 124, (Z)-1-(4-(7-(8-ethynylnaphthalen-1-yl)-8-fluoro-2-(((2R, 7aS)-2-fluorotetrahydro-1H-pyrrolizin-7a(5H)-yl)methoxy)pyrido[4,3-d]pyrimidin-4-yl)piperazin-1-yl)-2-fluoro-3-(oxazol-2-yl)prop-2-en-1-one]	6.27
C#Cc1c(F)ccc2cccc(-c3ncc4c(N5CCN(C(=O)/C(F)=C/c6ccccn6)C[C@@H]5C)nc(OC[C@@]56CCCN5C[C@H](F)C6)nc4c3F)c12 [Compound 89, (Z)-1-((S)-4-(7-(8-ethynyl-7-fluoronaphthalen-1-yl)-8-fluoro-2-(((2R, 7aS)-2-fluorotetrahydro-1H-pyrrolizin-7a(5H)-yl)methoxy)pyrido[4,3-d]pyrimidin-4-yl)-3-methylpiperazin-1-yl)-2-fluoro-3-(pyridin-2-yl)prop-2-en-1-one]	7.43
CN1CCC[C@H]1COc1nc(N2CCN(C(=O)/C(F)=C/c3ncccn3)[C@@H](CC#N)C2)c2cnc(-c3cccc4cccc(Cl)c34)c(F)c2n1 [Compound 20, 2-((S)-4-(7-(8-chloronaphthalen-1-yl)-8-fluoro-2-(((S)-1-methylpyrrolidin-2-yl)methoxy)pyrido[4,3-d]pyrimidin-4-yl)-1-((Z)-2-fluoro-3-(pyrimidin-2-yl)acryloyl)piperazin-2-yl)acetonitrile]	7.05
C#Cc1c(F)ccc2cc(O)cc(-c3ncc4c(N5C[C@H]6CC[C@@H](C5)N6C(=O)/C(F)=C/c5ccncn5)nc(OC[C@@]56CCCN5C[C@H](F)C6)nc4c3F)c12 [Compound 18, (Z)-1-((1R, 5S)-3-(7-(8-ethynyl-7-fluoro-3-hydroxynaphthalen-1-yl)-8-fluoro-2-(((2R, 7aS)-2-fluorotetrahydro-1H-pyrrolizin-7a(5H)-yl)methoxy)pyrido[4,3-d]pyrimidin-4-yl)-3,8-diazabicyclo[3.2.1]octan-8-yl)-2-fluoro-3-(pyrimidin-4-yl)prop-2-en-1-one]	7.60
C#Cc1cccc2cccc(-c3ncc4c(N5CCN(C(=O)/C(F)=C/c6cccnn6)CC5)nc(OC[C@@]56CCCN5C[C@H](F)C6)nc4c3F)c12 [Compound 127, (Z)-1-(4-(7-(8-ethynylnaphthalen-1-yl)-8-fluoro-2-(((2R, 7aS)-2-fluorotetrahydro-1H-pyrrolizin-7a(5H)-yl)methoxy)pyrido[4,3-d]pyrimidin-4-yl)piperazin-1-yl)-2-fluoro-3-(pyridazin-3-yl)prop-2-en-1-one]	8.00
N#Cc1cccc2[nH]cc(-c3ncc4c(N5CCN(C(=O)/C(F)=C/c6ccccn6)CC5)nc(OC[C@@]56CCCN5C[C@H](F)C6)nc4c3F)c12 [Compound 133, 3-(8-fluoro-4-(4-((Z)-2-fluoro-3-(pyridin-2-yl)acryloyl)piperazin-1-yl)-2-(((2R, 7aS)-2-fluorotetrahydro-1H-pyrrolizin-7a(5H)-yl)methoxy)pyrido[4,3-d]pyrimidin-7-yl)-1H-indole-4-carbonitrile]	6.05
C#Cc1cccc2cccc(-c3ncc4c(N5CCCN(C(=O)/C(F)=C/c6nccs6)CC5)nc(OC[C@@]56CCCN5C[C@H](F)C6)nc4c3F)c12 [Compound 78, (Z)-1-(4-(7-(8-ethynylnaphthalen-1-yl)-8-fluoro-2-(((2R, 7aS)-2-fluorotetrahydro-1H-pyrrolizin-7a(5H)-yl)methoxy)pyrido[4,3-d]pyrimidin-4-yl)-1,4-diazepan-1-yl)-2-fluoro-3-(thiazol-2-yl)prop-2-en-1-one]	6.92
C#Cc1cccc2cccc(-c3ncc4c(N5CCC6(CCN6C(=O)/C(F)=C/c6ccccn6)C5)nc(OC[C@@]56CCCN5C[C@H](F)C6)nc4c3F)c12 (single isomer, unassigned) [Compound 104]	4.80

Other lines, results leading:

pIC50	Structure (SMILES)
8.40	C#Cc1c(F)ccc2cc(O)cc(-c3ncc4c(N5CCN(C(=O)/C(F)=C/c6ncccn6)CC5)nc(OC[C@@]56CCCN5C[C@H](F)C6)nc4c3F)c12 [Example 57, (Z)-1-(4-(7-(8-ethynyl-7-fluoro-3-hydroxynaphthalen-1-yl)-8-fluoro-2-(((2R, 7aS)-2-fluorotetrahydro-1H-pyrrolizin-7a(5H)-yl)methoxy)pyrido[4,3-d]pyrimidin-4-yl)piperazin-1-yl)-2-fluoro-3-(pyrimidin-2-yl)prop-2-en-1-one]
6.96	C#Cc1cccc2cccc(-c3ncc4c(N(C)C5CCN(C(=O)/C(F)=C/c6nccs6)C5C)nc(OC[C@@]56CCCN5C[C@H](F)C6)nc4c3F)c12 (single isomer, unassigned) [Example 73 cis isomer 1]
6.34	N#CC[C@H]1CN(c2nc(OC[C@@]34CCCN3C[C@H](F)C4)nc3c(F)c(-c4cc(F)ccc4C(F)(F)F)ncc23)CCN1C(=O)/C(F)=C/c1nccs1 [Example 45, 2-((S)-1-((Z)-2-fluoro-3-(thiazol-2-yl)acryloyl)-4-(8-fluoro-7-(5-fluoro-2-(trifluoromethyl)phenyl)-2-(((2R, 7aS)-2-fluorotetrahydro-1H-pyrrolizin-7a(5H)-yl)methoxy)pyrido[4,3-d]pyrimidin-4-yl)piperazin-2-yl)acetonitrile]
8.35	C#Cc1c(F)ccc2cc(O)cc(-c3ncc4c(N5CCN(C(=O)/C(F)=C/c6ccccn6)C[C@@H]5C)nc(OC[C@@]56CCCN5C[C@H](F)C6)nc4c3F)c12 [Example 65, (Z)-1-((S)-4-(7-(8-ethynyl-7-fluoro-3-hydroxynaphthalen-1-yl)-8-fluoro-2-(((2R, 7aS)-2-fluorotetrahydro-1H-pyrrolizin-7a(5H)-yl)methoxy)pyrido[4,3-d]pyrimidin-4-yl)-3-methylpiperazin-1-yl)-2-fluoro-3-(pyridin-2-yl)prop-2-en-1-one]
6.74	CN1CCC[C@H]1COc1nc(N2CCN(C(=O)/C(F)=C/c3nccs3)[C@@H](CC#N)C2)c2cnc(-c3cc(O)ccc3F)c(F)c2n1 [Example 23, 2-((S)-1-((Z)-2-fluoro-3-(thiazol-2-yl)acryloyl)-4-(8-fluoro-7-(2-fluoro-5-hydroxyphenyl)-2-(((S)-1-methylpyrrolidin-2-yl)methoxy)pyrido[4,3-d]pyrimidin-4-yl)piperazin-2-yl)acetonitrile]
5.29	Cn1ncc2cccc(-c3ncc4c(N5CCN(C(=O)/C(F)=C/c6nccs6)CC5)nc(OC[C@@]56CCCN5C[C@H](F)C6)nc4c3F)c21 [Example 39, (Z)-2-fluoro-1-(4-(8-fluoro-2-(((2R, 7aS)-2-fluorotetrahydro-1H-pyrrolizin-7a(5H)-yl)methoxy)-7-(I-methyl-1H-indazol-7-yl)pyrido[4,3-d]pyrimidin-4-yl)piperazin-1-yl)-3-(thiazol-2-yl)prop-2-en-1-one]
7.12	N#CC[C@H]1CN(c2nc(OC[C@@]34CCCN3C[C@H](F)C4)nc3c(F)c(-c4ccccc4C(F)(F)F)ncc23)CCN1C(=O)/C(F)=C/c1nccs1 [Example 32, 2-((S)-4-(8-fluoro-2-(((2R, 7aS)-2-fluorotetrahydro-1H-pyrrolizin-7a(5H)-yl)methoxy)-7-(2-(trifluoromethyl)phenyl)pyrido[4,3-d]pyrimidin-4-yl)-1-((Z)-2-fluoro-3-(thiazol-2-yl)acryloyl)piperazin-2-yl)acetonitrile]
